Test results: PMC8667925, “New 1,2,4-oxadiazole derivatives with positive mGlu4 receptor modulation activity and antipsychotic-like properties” (Journal of Enzyme Inhibition and Medicinal Chemistry, 2021)
Entries after “also recorded” stand apart in the source; their conditions may differ. Like-named read-outs stand apart in the source and are kept apart here. Marks after values point to notes of the source that are not given here.

Tests used:
[1] = biological target: T1, mGlu8 receptor (Homo sapiens, UniProt O00222); experiment: cAMP accumulation assay in cells expressing mGlu8 receptor (agonist, PAM, NAM modes); format: cell-based; conditions: 10 µM, agonist mode
T1 construct: mGlu4 receptor NM_000841, mGlu7 receptor NM_000844.2, and mGlu8 receptor NM_000845; expressed in transfected cells; host or cells: T-REx 293
T1 sequence (O00222 34-908): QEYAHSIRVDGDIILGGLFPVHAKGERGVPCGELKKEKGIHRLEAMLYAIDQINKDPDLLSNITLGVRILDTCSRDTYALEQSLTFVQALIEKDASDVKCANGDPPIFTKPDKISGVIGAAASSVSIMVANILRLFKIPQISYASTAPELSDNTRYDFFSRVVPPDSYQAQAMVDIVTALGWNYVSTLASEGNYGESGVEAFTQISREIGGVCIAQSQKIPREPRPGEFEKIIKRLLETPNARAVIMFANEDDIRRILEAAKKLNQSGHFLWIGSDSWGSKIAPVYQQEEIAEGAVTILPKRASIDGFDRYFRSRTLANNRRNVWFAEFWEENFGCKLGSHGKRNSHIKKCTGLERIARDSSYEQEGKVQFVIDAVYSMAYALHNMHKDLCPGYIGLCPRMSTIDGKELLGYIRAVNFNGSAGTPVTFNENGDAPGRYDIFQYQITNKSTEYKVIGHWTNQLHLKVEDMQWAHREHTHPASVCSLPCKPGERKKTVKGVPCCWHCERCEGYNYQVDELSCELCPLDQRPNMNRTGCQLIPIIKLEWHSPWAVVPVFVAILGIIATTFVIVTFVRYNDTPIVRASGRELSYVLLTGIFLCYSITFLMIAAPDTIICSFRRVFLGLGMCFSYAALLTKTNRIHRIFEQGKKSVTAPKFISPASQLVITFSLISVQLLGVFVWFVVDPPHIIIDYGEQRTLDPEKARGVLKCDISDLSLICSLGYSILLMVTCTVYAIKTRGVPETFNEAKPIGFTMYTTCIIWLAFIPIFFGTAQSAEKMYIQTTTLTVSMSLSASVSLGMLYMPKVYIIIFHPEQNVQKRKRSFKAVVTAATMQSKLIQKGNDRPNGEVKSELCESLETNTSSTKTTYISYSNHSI
Method: (§1) The compounds were tested in the agonist, PAM (in the presence of EC20 concentration of L-Glu) or NAM (with EC80 of L-Glu) modes of forskolin-induced cAMP using T-REx 293 cells expressing the protein of a given receptor.
(§2) Figure 4. The activity of compounds 34, 37, 49, 52, 60, 62 and reference drugs MMPIP (a selective NAM of mGlu7 receptor) and AZ12216052 (a PAM of mGlu8 receptor) tested at a concentration of 10 μM in the cAMP accumulation assay in cells expressing mGlu7 and mGlu8 receptors. The percent activity refers to two extreme FRET signals: 0% corresponds to forskolin treatment alone and 100% to maximal FRET signal for the control cells (without any treatment). A/D – agonistic activity; B/E – PAM activity measured in the presence of L-Glu at the EC20 concentration (0.1 mM for mGlu7 receptor, and 1 μM for mGlu8 receptor); C/F – NAM activity measured in the presence of L-Glu at the EC80 concentration (1 mM for mGlu7 receptor, 10 μM for Glu8 receptor).
(§3) Determination of the intracellular cAMP through a homogeneous time-resolved fluorescence (HTRF) cAMP dynamic 2 kit from Cisbio (Codolet, France) was described previously by Chruścicka et al.[91]. Briefly, cells were grown in DMEM supplemented with 10% foetal bovine serum (FBS) (tetracycline free). Forty-eight hours before the experiments, mGlu receptor expression was induced by the addition of 0.75 µg/mL tetracycline. Twenty hours before the experiment, FBS and L-Glu were removed from the medium. Thereafter, the cells were scraped and centrifuged. A cell pellet was suspended in Hanks-HEPES (130 mM NaCl, 5.4 mM KCl, 1.8 mM CaCl2, 0.8 mM MgSO4, 0.9 mM NaH2PO4, 20 mM HEPES, and 3.25 mM glucose; pH 7.4). Then, the cell suspension was incubated in the presence of 10 µM forskolin (or 3 µM forskolin for mGlu7 receptor), the agonist L-glutamate and a compound for 5 min. Next, 10 µl of the cell suspension was mixed with 5 µl of cAMP-d2 conjugate and 5 µL of anti-cAMP cryptate conjugate. After 1 h of incubation at rt, the fluorescence at 620 nm and 665 nm was read (Tecan Infinite M1000). The results were calculated as the 665 nm/620 nm ratio multiplied by 10^4. Each sample was prepared in triplicate.

[2] = biological target: T2, mGlu7 receptor (Homo sapiens, UniProt Q14831); experiment: cAMP accumulation assay in cells expressing mGlu7 receptor (agonist, PAM, NAM modes); format: cell-based; conditions: 10 µM, agonist mode
T2 construct: mGlu4 receptor NM_000841, mGlu7 receptor NM_000844.2, and mGlu8 receptor NM_000845; expressed in transfected cells; host or cells: T-REx 293
T2 sequence (Q14831 35-915): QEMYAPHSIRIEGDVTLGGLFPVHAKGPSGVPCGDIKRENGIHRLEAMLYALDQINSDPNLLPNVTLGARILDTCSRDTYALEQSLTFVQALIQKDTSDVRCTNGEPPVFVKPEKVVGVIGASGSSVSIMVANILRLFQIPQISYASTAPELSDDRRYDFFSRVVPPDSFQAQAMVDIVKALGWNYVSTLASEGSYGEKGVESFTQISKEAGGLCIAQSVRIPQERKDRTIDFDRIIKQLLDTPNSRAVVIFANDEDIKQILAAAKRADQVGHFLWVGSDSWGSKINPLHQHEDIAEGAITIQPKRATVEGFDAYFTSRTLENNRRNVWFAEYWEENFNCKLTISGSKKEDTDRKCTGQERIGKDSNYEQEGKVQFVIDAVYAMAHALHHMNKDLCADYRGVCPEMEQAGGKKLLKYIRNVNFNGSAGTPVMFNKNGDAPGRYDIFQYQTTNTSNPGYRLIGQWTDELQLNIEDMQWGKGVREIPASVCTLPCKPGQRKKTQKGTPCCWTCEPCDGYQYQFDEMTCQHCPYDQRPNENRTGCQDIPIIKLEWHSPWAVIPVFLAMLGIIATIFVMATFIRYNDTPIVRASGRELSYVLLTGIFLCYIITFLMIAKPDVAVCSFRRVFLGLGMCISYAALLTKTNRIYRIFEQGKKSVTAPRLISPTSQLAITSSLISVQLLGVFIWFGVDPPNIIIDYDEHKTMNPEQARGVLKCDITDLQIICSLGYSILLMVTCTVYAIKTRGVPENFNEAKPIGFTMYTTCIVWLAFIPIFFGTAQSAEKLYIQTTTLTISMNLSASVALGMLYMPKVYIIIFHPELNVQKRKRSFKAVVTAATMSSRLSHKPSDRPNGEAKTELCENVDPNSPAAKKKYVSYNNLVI
Method: as §1, §2, §3

[3] = system: Albino Swiss mice; experiment: modified stress-induced hyperthermia (SIH) in singly housed mice; format: in vivo; conditions: over the doses 5, 10 and 20 mg/kg i.p.
Method: (§4) The compounds were dissolved in a small amount of 100% EtOH and then adjusted with 20% cyclodextrin, and the pH was adjusted to 6.0. The investigated compounds were administered intraperitoneally (i.p.) 60 min before the behavioural test. Control drugs i.e. diazepam, clozapine and imipramine (Sigma–Aldrich, St. Louis, USA), were administered i.p. 60 min before the behavioural test. Cyclodextrin (20%) was used as a vehicle. All solutions were prepared immediately prior to the experiments and were administered at a constant volume of 10 ml/kg.
The procedure for modified stress-induced hyperthermia was adapted from Van der Heyden[93] and based on the procedure introduced by Borsini[94]. Each experimental group consisted of eight to ten animals. The animals were housed individually in a 26 × 21 × 14 cm Macolon cage 24 h before testing. For this assay, the body temperature was measured for each mouse at t = 0 min (T1) and t = +15 min (T2). Albino Swiss mice were placed into a new cage immediately following T1, with the difference in temperature (T2−T1) used as the measure of stress-induced hyperthermia. […] A comparison between T1 in vehicle-treated mice and those administered the test compound was used to determine whether the agent affects body temperature alone. Diazepam (5 mg/kg) was used as the positive control. The rectal temperature was measured to the nearest 0.1 °C with a Physitemp Theralert thermometer, TH-5, Clifton NJ, USA, with the temperature sensor for mice, Type T, Copper-Constantan Thermocouple, Braintree Scientific Inc. The lubricated thermistor probe (2 mm diameter) was inserted 20 mm into the rectum. The mouse was held at the base of the tail during this determination, and the thermistor probe was left in place until a constant reading was obtained for 15 s. The effects of the investigated compounds on the SIH response were investigated after administration of the compounds at doses of 5, 10 and 20 mg/kg.

[4] = biological target: T3, mGlu4 receptor (Homo sapiens, UniProt Q14833); experiment: forskolin-stimulated cAMP assay, PAM mode (EC20 of L-Glu), T-REx 293 cells; format: cell-based; conditions: SEM where given; for EC50 / Emax: PAM mode; for EC50: EC20 (3 µM) L-Glu, T-REx 293 cells expressing human mGlu4 receptor; for Emax: T-REx-293, human mGlu4, read-out: GluMax; for Fold shift of L-Glu dose-response curve: in the presence of 10 µM of compound
T3 construct: mGlu4 receptor NM_000841, mGlu7 receptor NM_000844.2, and mGlu8 receptor NM_000845; expressed in transfected cells; host or cells: T-REx 293
T3 sequence (Q14833 33-912): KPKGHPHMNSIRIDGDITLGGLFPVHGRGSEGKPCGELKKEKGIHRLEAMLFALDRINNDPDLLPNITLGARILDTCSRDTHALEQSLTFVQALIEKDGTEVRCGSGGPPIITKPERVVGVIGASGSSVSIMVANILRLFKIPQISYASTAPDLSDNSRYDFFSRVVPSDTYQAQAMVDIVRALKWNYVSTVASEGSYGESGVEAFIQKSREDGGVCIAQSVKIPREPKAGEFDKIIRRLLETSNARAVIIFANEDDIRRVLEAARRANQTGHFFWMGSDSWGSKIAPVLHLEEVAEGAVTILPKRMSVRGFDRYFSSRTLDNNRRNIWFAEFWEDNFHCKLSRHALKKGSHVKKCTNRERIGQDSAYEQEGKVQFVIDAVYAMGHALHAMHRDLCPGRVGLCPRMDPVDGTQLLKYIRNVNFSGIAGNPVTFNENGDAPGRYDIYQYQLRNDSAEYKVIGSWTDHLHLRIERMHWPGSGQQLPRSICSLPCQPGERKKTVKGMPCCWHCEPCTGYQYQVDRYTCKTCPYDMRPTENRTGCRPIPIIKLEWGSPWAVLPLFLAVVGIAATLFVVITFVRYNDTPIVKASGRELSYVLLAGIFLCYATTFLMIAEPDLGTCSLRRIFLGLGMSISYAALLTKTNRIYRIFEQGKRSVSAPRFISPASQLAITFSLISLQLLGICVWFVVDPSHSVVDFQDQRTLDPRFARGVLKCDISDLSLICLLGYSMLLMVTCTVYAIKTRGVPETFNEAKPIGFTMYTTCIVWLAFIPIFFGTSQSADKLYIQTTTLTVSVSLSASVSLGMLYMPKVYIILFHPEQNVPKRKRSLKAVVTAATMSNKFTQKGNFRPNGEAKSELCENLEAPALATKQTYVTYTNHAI
Method: The activity of the compounds was assessed in vitro in a forskolin-stimulated cAMP assay in T-REx 293 cells expressing human mGlu4 receptors in the presence of an EC20 concentration of L-Glu; a PAM was identified if it potentiated cAMP inhibition by the Gi/o-dependent pathway of mGlu4 receptor activation; i.e. if it was able to produce a leftward shift in the potency of the endogenous agonist.
as §3
Statistical calculations were performed using GraphPad Prism 5.04 software (GraphPad Software, La Jolla, CA, USA). The curves were fitted to a 3-parametric logistic equation, allowing for the determination of EC50 values. Each data point was analysed in triplicate.

[5] = system: Salmonella typhimurium strains TA98 and TA100; format: cell-based; conditions: TA98 and TA100, with and without S9, ≤ 30 µM
Method: The primary assessment of the cardiotoxic risk and mutagenic potential of the six selected 1,2,4-oxadiazole derivatives was performed in the hERG channel assay and the mini-AMES test, respectively. The mutagenicity potential was determined in strains TA98 (frameshift mutation) and TA100 (base-pair substitution) of Salmonella typhimurium in the presence and absence of an exogenous metabolic activation system (rat liver S9 fraction) containing mammalian microsomal enzymes.
The Ames microplate fluctuation protocol (MPF) assay was performed with Salmonella typhimurium strains TA98 and TA100, […]. The bacterial strain as well as the exposure and indicator medium were obtained from Xenometrix AG (Allschwil, Switzerland). […] After the addition of indicator medium, each well of the 24-well plate was aliquoted into 48 wells of a 384-well plate.
The occurrence of reversion events to histidine prototrophy was observed as the growth of bacteria in the indicator medium without histidine after 72 h of incubation at 37 °C. Bacterial growth in 384-well plates was visualised by a colour change of medium from violet to yellow due to the addition of pH indicator dye. The absorbance was measured with a microplate reader (EnSpire) at 420 nm. The reference mutagen NQNO (0.5 mM) was used as a positive control in the experiments. The medium control baseline (MCB) was calculated, as derived from the mean number of revertants in the medium control plus one standard deviation.
AMES test was conducted with two Salmonella typhimurium strains TA98 and TA100 in the presence or absence of liver homogenate S9 to simulate the metabolic conversions of tested compounds with liver enzymes. The AMES MPF 98/100 assay from Xenometrix was performed as described by the supplier. Data were analysed with the AMES MPF calculation […]
(also on this page, place not known: TA10 cal culation TA98 - S9 Revertants TA98 + S9 Revertants - S9 Revertants TA100 + S9 Revertants TA98 - S9 Revertants TA98 + S9 Revertants TA100 - S9 Revertants 0 TA100 + S9 Revertants)

[6] = biological target: T3, mGlu4 receptor; experiment: forskolin-induced cAMP assay, agonist mode, T-REx 293 cells; format: cell-based
Method: as §1, §3

[7] = system: Albino Swiss mice; experiment: DOI-induced head twitch test (HTR); format: in vivo; conditions: over the doses 2.5, 5 and 10 mg/kg i.p.; DOI 2.5 mg/kg i.p.
Method: as §4
The experiments were performed according to the procedure described in our previous studies[75]^,[80]. Briefly, to habituate mice to the experimental environment, each animal was transferred to a 12 cm (diameter) × 20 cm (height) glass cage lined with sawdust 30 min before treatment. Test compounds were administered intraperitoneally (i.p.) at doses of 2.5, 5, and 10 mg/kg body weight 60 min before the test was performed. The head twitch response (HTR) in mice was induced by DOI (2.5 mg/kg, i.p.). Immediately after treatment, the number of head twitches was counted during a 20 min session. Haloperidol and clozapine were used as the reference compounds at active doses of 0.2 and 5 mg/kg, respectively.

[8] = biological target: mGlu4 receptor; conditions: cited from earlier work
[9] = system: untransfected cells of the T-REx 293 line; experiment: forskolin-induced cAMP accumulation in untransfected (mock) cells, control experiment; format: cell-based; conditions: untransfected T-REx 293 cells
Method: 2. In vitro mGlu receptor selectivity profile
Figure S1. Activity of compounds 34, 37, 49, 52, 60 and 62 in forskolin -induced cAMP accumulation in untransfected cells of the T-REx 293 line. Similar to reference mGlu4 receptor […]
cAMP assay in the mock T-REx 293 cell line. […]
receptor used as reference drug) tested at a concentration of 10 μM in NAM mode (in the presence of EC80 concentration of L-Glu (30 μM)) by the cAMP accumulation assay in cells expressing mGlu4 receptor. […]

[10] = system: DOI-induced HTR; set-up: method as in PMID 24947466; conditions: medium dose of 3, 10 and 30 mg/kg; cited from earlier work

Cc1cc(NC(=O)c2ccccn2)ccc1-c1noc(-c2ccccc2Cl)n1 [Compound 62, N-(4-(5-(2-chlorophenyl)-1,2,4-oxadiazol-3-yl)-3-methylphenyl)picolinamide]
agonistic activity at mGlu8 receptor [1]: lacked agonistic action
agonistic activity at mGlu7 receptor [2]: lacked agonistic action
effect on SIH response [3]: significant anxiolytic- and antipsychotic-like properties; also recorded: significantly reduced SIH responses at all three doses; also recorded: at all doses significantly reduced the SIH response
EC50 [4]: 308 nM
Emax [4]: 135%
Fold shift of L-Glu dose-response curve [4]: 3.3 (0.34)^d
mutagenic activity (mini-AMES) [5]: no mutagenic potential
agonistic action at mGlu4 receptor [6]: lacked agonistic action
effect on DOI-induced HTR [7]: significant anxiolytic- and antipsychotic-like properties; also recorded: at all doses significantly reduced; also recorded: Clear dose-response effects; also recorded: clear dose-dependent response and high potency; also recorded: comparable to that of clozapine

O/N=c1\cc(-c2cc3sccc3cn2)oc2ccc(CCCN3CCOCC3)cc12 [PXT002331]
EC50 ([8]; PAM, read-out: mGlu4 PAM potency EC50): 46 nM

O=C(Nc1cc(Cl)cc(Cl)c1)[C@H]1CCCC[C@H]1C(=O)O [VU0155041]
effect on forskolin-induced cAMP accumulation in mock cells [9]: no effects
EC50 ([8]; reference ago-PAM, read-out: agonist activity at mGlu4 receptor, EC50): 2500 nM

O=C(Nc1ccccn1)C12CC1C(=NO)c1ccccc1O2 (centres unmarked) [VU0359516]
EC50 ([8]; PAM, read-out: EC50 (mGlu4 receptor PAM)): 380 nM

Cc1ccnc(Nc2nc(-c3cn[nH]c3)c(C)s2)n1 [ADX88178]
reduction of DOI-induced HTR [10]: ≤ 30%

O=C(Nc1ccc(-c2noc(-c3ccccc3)n2)c(Cl)c1)c1ccccn1 [Compound 49]
agonistic activity at mGlu7 receptor [2]: direct agonistic activity
effect on SIH response [3]: not effective
EC50 [4]: 352 nM
Emax [4]: 123%
Fold shift of L-Glu dose-response curve [4]: 6.77 (0.53)^d
mutagenic activity (mini-AMES) [5]: no mutagenic potential
effect on DOI-induced HTR [7]: not effective; also recorded: no influence

FC(F)(F)c1nccc2cc(Nc3n[nH]c4ncccc34)ccc12 [Valiglurax]
EC50 ([8]; PAM, read-out: mGlu4 receptor PAM potency EC50): 64.6 nM
